Laboratory results: US7470708B2, “Acidic quinoline derivatives and their use for the prevention and/or treatment of hyperglycaemia-related pathologies” (Merck Patent Gesellschaft mit Beschraenkter Haftung, priority 2003, dated 2008)
Blank lines part the entries; values can stand above or below the molecule they belong to.

What was measured:
[1] = test system: insulin secretion; assay: Insulin secretion test; assay type: cell-based; settings: concentration of test compound 10^−5 M
Description: According to the method described in Endocrinology, 1992 vol. 130 (1) pp. 167-178
• C corresponds to the concentration of test compound according to the invention INS. SEC. corresponds to the percentage of insulin secretion.

[2] = test system: N0STZ rats; assay: Antidiabetic activity in N0STZ rats (non-insulin-dependent diabetes induced by neonatal steptozotocin); assay type: in vivo; settings: N0 STZ rat, oral, percentage change in glycaemia on D4 relative to D0
Protocol: Study of the Antidiabetic Activity in N0STZ Rats
The antidiabetic activity of the compounds of the formula (I) via the oral route, on an experimental model of non-insulin-dependent diabetes induced in rats by means of steptozotocin, was determined as follows.
The model of non-insulin-dependent diabetes is obtained in the rats by means of a neonatal injection (on the day of birth) of steptozotocin.
The diabetic rats used are eight weeks old. The animals are housed, from the day of birth to the day of the experiment, in an animal house at a regulated temperature of 21 to 22° C. and subjected to a fixed cycle of light (from 7 a.m. to 7 p.m.) and darkness (from 7p.m. to 7 a.m.). Their food consisted of a maintenance diet, and water and food were given “ad libitum”, with the exception of fasting two hours before the tests, during which period the food is removed (post-absorptive state).
The rats are treated orally for one (D1) or four (D4) days with the test product. Two hours after the final administration of the product and 30 minutes after anaesthetizing the animals with pentobarbital sodium (Nembutal®), a 300 μl blood sample is taken from the end of the tail.
By way of example, the results obtained are collated in the table below.

SMILES: CCOc1cc(C(=O)O)nc2ccc(F)cc12 [Compound 1, 4-Ethoxy-6-fluoroquinoline-2-carboxylic acid]
- melting point: 205 °C
- INS. SEC. (percentage of insulin secretion) [1]: 172%
- Percentage decrease in glycaemia at 200 mg/kg [2]: −27%

SMILES: COc1ccc2nc(C(=O)[O-])cc(OCc3ccc(Br)cc3F)c2c1.[Na+] [Compound 4, 4-(4-Bromo-2-fluorobenzyloxy)-6-methoxyquinoline-2-carboxylic acid, sodium salt]
- melting point: > 250 °C

SMILES: N#Cc1ccccc1-c1ccc(COc2cc(C(=O)O)nc3ccc(F)cc23)cc1 [Compound 7, 4-(2′-Cyanobiphenyl-4-ylmethoxy)-6-fluoroquinoline-2-carboxylic acid]
- melting point: > 250 °C

SMILES: COc1ccc(C(=O)COc2cc(C(=O)O)nc3ccc(F)cc23)cc1OC [Compound 63, 4-[2-(3,4-dimethoxyphenyl)-2-oxoethoxy]-6-fluoroquinoline-2-carboxylic acid]
- INS. SEC. (percentage of insulin secretion) [1]: 192%

SMILES: COC(=O)c1cc(OCCCCl)c2cc(F)ccc2n1 [Compound 64, methyl 4-(3-chloropropoxy)-6-fluoroquinoline-2-carboxylate]
- INS. SEC. (percentage of insulin secretion) [1]: 179%

SMILES: COC(=O)c1cc(OCC(C)CCl)c2cc(F)ccc2n1 (centres unmarked) [Compound 65, methyl 4-(3-chloro-2-methylpropoxy)-6-fluoroquinoline-2-carboxylate]
- INS. SEC. (percentage of insulin secretion) [1]: 161%

Further lines, with some results ahead:

- melting point: > 250 °C
SMILES: O=C(O)c1cc(OCc2ccc(Br)cc2F)c2cc(F)ccc2n1 [Compound 2, 4-(4-Bromo-2-fluorobenzyloxy)-6-fluoroquinoline-2-carboxylic acid]

- melting point: > 250 °C
SMILES: O=C(O)c1cc(OCc2nc3ccccc3s2)c2cc(F)ccc2n1 [Compound 3, 4-(Benzothiazol-2-ylmethoxy)-6-fluoroquinoline-2-carboxylic acid]

- melting point: > 250 °C
SMILES: O=C(O)c1cc(OC/C=C/COc2cc(C(=O)O)nc3ccc(F)cc23)c2cc(F)ccc2n1 [Compound 5, 4-({(E)-4-[(2-Carboxy-6-fluoro-4-quinolinyl)oxy]-2-butenyl}oxy)-6-fluoro-2-quinolinecarboxylic acid]
- Percentage decrease in glycaemia at 200 mg/kg [2]: −17%

- melting point: > 250 °C
SMILES: CC(C)=CCOc1cc(C(=O)O)nc2ccc(F)cc12 [Compound 6, 6-Fluoro-4-(3-methylbut-2-enyloxy)quinoline-2-carboxylic acid]
- Percentage decrease in glycaemia at 200 mg/kg [2]: −10%
